Results as given in US20030124643A1, “Method and kit forrapid concurrent identification and antimicrobial susceptibility testing of microorganisms from broth culture” (priority 2001, published 2003).

Assays:
E. coli = assay: Kit plate disk-quarter diffusion AST, mixed culture; type: cell-based; settings: mixed culture with Staph. aureus, Cephalothin chamber 70', region confirmed by gram stain, FIG. 37
Excerpt: (§1) FIGS. 37A to 37C illustrates the growth of two microorganisms, Staph. aureus and E. coli, on the same preferred embodiment kit plate. FIGS. 37B and 37C are two different views of an enlargement of the AST test chambers (67′-70′ and 72′-75′). FIG. 37B viewed with back lighting. FIG. 37C viewed with front lighting. Two AST test chambers are featured in these figures: Mueller Hinton agar plus antimicrobial Cephalothin chamber 70′ and Mueller Hinton agar plus antimicrobial Enrofloxicin chamber 73′. Two margins are observable in each chamber: E coli & cephalothin margin 180 and Staph. aureus & cephalothin margin 181 for Cephalothin chamber 70′; and Staph. aureus & Enrofloxicin margin 182 and E. coli & Enrofloxicin margin 183 for Enrofloxicin chamber 73′. The region 176A is between the E. coli margin 180 and Staph. aureus margin 181 in Cephalothin chamber 70′. The region 178A is between the Staph. aureus margin 182 and the E. coli margin 183 in Enrofloxicin chamber 73′. Illustrated in FIG. 38 are two gram stains 176B and 178B of a sample from regions 176A and 178A respectively.
(§2) […] of this dilution is added per chamber. FIG. 17 illustrates the first chamber of the top two rows inoculated using dilution 140. Eighty micro liters of dilution 140 is added per chamber to the ten upper test chambers. […]

Staph. aureus = assay: as above; type: cell-based; settings: mixed culture with E. coli, Enrofloxicin chamber 73', region confirmed by gram stain, FIG. 37
Excerpt: as §1, §2

Row | SMILES | AST result in growth region 176A, between margins 180 and 181 (E. coli) | AST result in growth region 178A, between margins 182 and 183 (Staph. aureus)
1 | CC(=O)OCC1=C(C(=O)O)N2C(=O)[C@@H](NC(=O)Cc3cccs3)[C@H]2SC1 [Cephalothin] | resistance | –
2 | CCN1CCN(c2cc3c(cc2F)c(=O)c(C(=O)O)cn3C2CC2)CC1 [Enrofloxicin] | – | resistance
